Laboratory results taken from patent US10981932B2, “Macrocyclic indole derivatives” (Bayer Aktiengesellschaft, priority 2016, dated 2021).
Where a name gives a salt, the structure may show the parent alone.

Assays:
SUDHL10 [1] = experiment: Induction of caspase-3/7 activity (Caspase-Glo 3/7), SUDHL10; format: cell-based; details: caspase-3/7 induction, SUDHL10 cells, 3 h treatment; median
In short: (§1)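 Caspase-Glo 3/7 luminescence, 3 h compound exposure, 37 °C, humidified. Minus medium-only blank. EC50 fit: C0=1, plateau = reference max induction.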

MCL-1 = MCL-1 (Homo sapiens, UniProt Q07820); experiment: Protein-protein interaction assay MCL-1/Noxa BH3 peptide (MCL-1 assay), TR-FRET; format: binding; details: MBP-MCL-1 / Noxa BH3-derived peptide, median
Sequence of MCL-1 (Q07820 whole entry): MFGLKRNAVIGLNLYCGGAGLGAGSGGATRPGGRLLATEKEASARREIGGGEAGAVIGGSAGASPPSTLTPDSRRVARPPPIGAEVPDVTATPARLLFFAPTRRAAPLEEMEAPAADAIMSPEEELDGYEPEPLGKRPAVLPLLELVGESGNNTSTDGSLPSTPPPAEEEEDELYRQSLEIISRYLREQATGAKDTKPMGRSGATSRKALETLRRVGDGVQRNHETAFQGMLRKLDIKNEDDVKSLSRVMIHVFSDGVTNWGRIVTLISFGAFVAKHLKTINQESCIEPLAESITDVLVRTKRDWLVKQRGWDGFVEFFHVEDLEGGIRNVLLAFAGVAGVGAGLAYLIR
In short: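 Displacement of the biotinylated Noxa BH3 peptide from MBP-tagged human MCL-1 (1 nM) is detected by time-resolved FRET. Compounds are tested in duplicate across eleven concentrations up to 20 μM, incubated 1 h at 22 °C and overnight at 4 °C, and IC50 is fitted with a four-parameter equation.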

SUDHL5 [2] = experiment: Induction of caspase-3/7 activity (Caspase-Glo 3/7), SUDHL5; format: cell-based; details: caspase-3/7 induction, SUDHL5 cells, 3 h treatment; median
In short: as §1

SUDHL5 [3] = experiment: Anti-proliferative effect (CellTiter-Glo, 72 h), SUDHL5; format: cell-based; details: SUDHL5 cells, antiproliferation, 72 h incubation, median, read-out: Antiproli SUDHL5 [M] (median)
In short: (§2)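 Viable cells quantified with CellTiter-Glo after 72 h at 37 °C; rim wells excluded; day 0 plate as baseline.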

SUDHL10 [4] = experiment: Anti-proliferative effect (CellTiter-Glo, 72 h), SUDHL10; format: cell-based; details: SUDHL10 cells, antiproliferation, 72 h incubation, median, read-out: Antiproli SUDHL10 [M] (median)
In short: as §2

SUDHL10 [5] = experiment: Induction of cytotoxicity (CellTiter-Glo, 5 h), SUDHL10; details: read-out: Cytotox SUDHL10 [M] (median); SUDHL10 cells, cytotoxicity induction, CellTiter-Glo, 5 h incubation, median
A2780 = experiment: Anti-proliferative effect (CellTiter-Glo, 72 h), A2780; format: cell-based; details: A2780 cells, median, read-out: IC50 antiproliferation assay A2780 [M] (median)
In short: as §2

SUDHL5 [6] = experiment: Induction of cytotoxicity (CellTiter-Glo, 5 h), SUDHL5; details: read-out: Cytotox SUDHL5 [M] (median); SUDHL5 cells, cytotoxicity induction, CellTiter-Glo, 5 h incubation, median

SMILES | EC50 (SUDHL10 [1]) | IC50 (MCL-1) | EC50 (SUDHL5 [2]) | IC50 (SUDHL5 [3]) | IC50 (SUDHL10 [4]) | IC50 (A2780) | IC50 (SUDHL10 [4]; Homo sapiens, SU-DHL10, 72 h) | IC50 (SUDHL10 [5]) | IC50 (SUDHL5 [6])
Cc1ccc2c(CCCOc3cccc4ccccc34)c(C(=O)O)n3c2c1-c1c(nn(C)c1C)COCCCC3 (single isomer, unassigned; enantiomer 2) [Example 077, 2,3,4-trimethyl-7-[3-(naphthalen-1-yloxy)propyl]-2,10,11,12,13,15-hexahydropyrazolo[4′,3′:9,10][1,6]oxazacycloundecino[8,7,6-hi]indole-8-carboxylic Acid (Enantiomer 2)] | > 33 µM | 34.2 nM | > 33 µM | 2.73e-05 M | 1.17e-05 M | 2.06e-05 M | – | > 3.3e-05 M | > 3.3e-05 M
CCn1nc2c(c1C1CC1)-c1cccc3c(CCCOc4cccc5ccccc45)c(C(=O)O)n(c13)CCCCOC2 (single isomer, unassigned; enantiomer 2) [Example 083, 3-cyclopropyl-2-ethyl-7-[3-(naphthalen-1-yloxy)propyl]-2,10,11,12,13,15-hexahydropyrazolo[4′,3′:9,10][1,6]oxazacycloundecino[8,7,6-hi]indole-8-carboxylic acid-N-ethylethanamine Salt (Enantiomer 2)] | > 33 µM | 172 nM | > 33 µM | 2.68e-05 M | 1.47e-05 M | 1.38e-05 M | – | > 3.3e-05 M | > 3.3e-05 M
COCCn1nc2c(c1C1CC1)-c1cccc3c(CCCOc4cccc5ccccc45)c(C(=O)O)n(c13)CCCCOC2 (single isomer, unassigned; enantiomer 2) [Example 086, 3-Cyclopropyl-2-(2-methoxyethyl)-7-[3-(naphthalen-1-yloxy)propyl]-2,10,11,12,13,15-hexahydropyrazolo[4′3′:9,10][1,6]oxazacycloundecino[8,7,6-hi]indole-carboxylic acid-N-ethylethanamine Salt (Enantiomer 2)] | > 33 µM | 72.8 nM | > 33 µM | 1.72e-05 M | 7e-06 M | 1.36e-05 M | – | > 3.3e-05 M | 3.15e-05 M
Cc1c2c(nn1C1CC1)COCCCCn1c(C(=O)O)c(CCCOc3cccc4ccccc34)c3cccc-2c31 (single isomer, unassigned; enantiomer 2) [Example 094, 2-cyclopropyl-3-methyl-7-[3-(naphthalen-1-yloxy)propyl]-2,10,11,12,13,15-hexahydropyrazolo[4′,3′:9,10][1,6]oxazacycloundecino[8,7,6-hi]indole-8-carboxylic acid-N-ethylethanamine Salt (Enantiomer 2)] | > 33 µM | 120 nM | > 33 µM | 3.11e-05 M | 1.64e-05 M | 2.58e-05 M | – | > 3.3e-05 M | > 3.3e-05 M
Cc1nn(CCN2CCOCC2)c2c1-c1cccc3c(CCCOc4cccc5ccccc45)c(C(=O)O)n(c13)CCCCOC2 (single isomer, unassigned; enantiomer 2) [Example 097, 3-methyl-1-[2-(morpholin-4-yl)ethyl]-7-[3-(naphthalen-1-yloxy)propyl]-1,10,11,12,13,15-hexahydropyrazolo[4′,3′:9,10][1,6]oxazacycloundecino[8,7,6-hi]indole-carboxylic acid-N-ethylethanamine Salt (Enantiomer 2)] | > 33 µM | 58.9 nM | > 33 µM | 2.25e-05 M | 1.21e-05 M | 2.84e-05 M | – | > 3.3e-05 M | 3.05e-05 M
COCCn1nc(C2CC2)c2c1COCCCCn1c(C(=O)O)c(CCCOc3cccc4ccccc34)c3cccc-2c31 (single isomer, unassigned; enantiomer 2) [Example 104, 3-cyclopropyl-1-(2-methoxyethyl)-7-[3-(naphthalen-1-yloxy)propyl]-1,10,11,12,13,15-hexahydropyrazolo[4′,3′:9,10][1,6]oxazacycloundecino[8,7,6-hi]indole-8-carboxylic acid-N-ethylethanamine Salt (Enantiomer 2)] | > 33 µM | 106 nM | > 33 µM | 2e-05 M | 1.02e-05 M | 2.21e-05 M | – | > 3.3e-05 M | > 3.3e-05 M

Now from value to compound, other results behind:

EC50 (SUDHL10 [1]) | IC50 (MCL-1) | EC50 (SUDHL5 [2]) | IC50 (SUDHL5 [3]) | IC50 (SUDHL10 [4]) | IC50 (A2780) | IC50 (SUDHL10 [4]; Homo sapiens, SU-DHL10, 72 h) | SMILES | IC50 (SUDHL10 [5]) | IC50 (SUDHL5 [6])
> 33 µM | 54.3 nM | > 33 µM | 1.51e-05 M | 1.17e-05 M | 1.52e-05 M | – | COCCn1nc2c(c1C)-c1cccc3c(CCCOc4cccc5ccccc45)c(C(=O)O)n(c13)CCCCOC2 (single isomer, unassigned; enantiomer 2) [Example 108, 2-(2-methoxyethyl)-3-methyl-7-[3-(naphthalen-1-yloxy)propyl]-2,10,11,12,13,15-hexahydropyrazolo[4′,3′:9,10][1,6]oxazacycloundecino[8,7,6-hi]indole-8-carboxylic acid-N-ethylethanamine Salt (Enantiomer 2)] | > 3.3e-05 M | > 3.3e-05 M
> 33 µM | 327 nM | > 33 µM | > 3.3e-05 M | 5.45e-06 M | 2.61e-05 M | – | Cc1nn(CC(F)(F)F)c2c1-c1cccc3c(CCCOc4cccc5ccccc45)c(C(=O)O)n(c13)CCCCOC2 (single isomer, unassigned; enantiomer 2) [Example 111, 3-methyl-7-[3-(naphthalen-1-yloxy)propyl]-1-(2,2,2-trifluoroethyl)-1,10,11,12,13,15-hexahydropyrazolo[4′,3′:9,10][,6]oxazacycloundecino[8,7,6-hi]indole-8-carboxy ic acid-N-ethylethanamine Salt (Enantiomer 2)] | > 3.3e-05 M | > 3.3e-05 M
> 33 µM | 322 nM | > 33 µM | 2.14e-05 M | 1.63e-05 M | 2.07e-05 M | – | Cn1nc(CN2CCOCC2)c2c1COCC=CCn1c(C(=O)O)c(CCCOc3cccc4ccccc34)c3cccc-2c31 (single isomer, unassigned; enantiomer 2) [Example 134, (E)-1-methyl-3-(morpholin-4-ylmethyl)-7-[3-(naphthalen-1-yloxy)propyl]-1,13,15-tetrahydropyrazolo[4′,3′:9,10][1,6]oxazacycloundecino[8,7,6-hi]indole-8-carboxylic acid-N-ethylethanamine Salt (Enantiomer 2)] | > 3.3e-05 M | > 3.3e-05 M
> 33 µM | 9.01 nM | > 33 µM | 1.93e-05 M | 1.05e-05 M | 1.37e-05 M | – | CCc1c2c(nn1C)CN(C)CCCn1c(C(=O)O)c(CCCOc3cccc4ccccc34)c3ccc(C)c-2c31 (single isomer, unassigned; enantiomer 2) [Example 146, 11-Ethyl-7,10,12-trimethyl-1-[3-(1-naphthyloxy)propyl]-4,5,6,7,8,10-hexahydropyrazolo[3′,4′:7,8][1,5]diazecino[9,10,1-hi]indole-2-carboxylic acid-N-ethylethanamine Salt (Enantiomer 2)] | 2.67e-05 M | 1.66e-05 M
> 33 µM | 379 nM | > 33 µM | > 3.3e-05 M | 1.76e-05 M | > 3.3e-05 M | – | Cn1nc(CCN2CCOCC2)c2c1COCCCCn1c(C(=O)O)c(CCCOc3cccc4ccccc34)c3cccc-2c31 (single isomer, unassigned; enantiomer 2) [Example 152, 1-methyl-3-(2-(morpholin-4-yl)ethyl-7-[3-(naphthalen-1-yloxy)propyl]-11,10,11,12,13,15-hexahydropyrazolo[4′,3′:9,10][1,6]oxazacycloundecino[8,7,6-hi]indole-8-carboxylic acid-N-ethylethanamine Salt (Enantiomer 2)] | > 3.3e-05 M | > 3.3e-05 M
> 33 µM | 637 nM | > 33 µM | 1.17e-05 M | – | 2.75e-05 M | 6.35e-06 M | Cc1nn(CC(F)(F)F)c2c1-c1cccc3c(CCCOc4cccc5c4CCCC5)c(C(=O)O)n(c13)CCCCOC2 (single isomer, unassigned; enantiomer 2) [Example 163, 3-methyl-7-[3-(5,6,7,8-tetrahydronaphthalen-1-yloxy)propyl]-1-(2,2,2-trifluoroethyl)-1,10,11,12,13,15-hexahydropyrazolo[4′,3′:9,10][1,6]oxazacycloundecino[8,7,6-hi]indole-8-carboxylic acid-N-ethylethanamine Salt (Enantiomer 2)] | > 3.3e-05 M | 2.93e-05 M
